How the values were obtained:
[1] = Stability of EPA powder at room temperature; format: physicochemical; details: powder form, no antioxidants added
[2] = Physical characterisation of isolated EPA: solubility; format: physicochemical; details: solvent chloroform; isolated EPA free fatty acid powder
Procedure: Take 1 litre of fish oil. Maintain temperature to 40-45° C. To it add 1-2% methanolic or ethanolic or propanolic or butanolic sodium or potassium hydroxide 1 litre and stir for ½ an hour. keep aside, it separates into 2 layers, discard an upper layer which contains lower fatty acids. It further separates in to two layers, discard the upper layer. Then in lower layer add 750 ml of acetone or ethyl/ methyl ketone and stir for ½ an hour and keep aside for 20 mins. It precipitates and form two phase (solid and liquid) filter it and discard the solid layer. In the lower liquid layer, after ½ an hour, settle solid compound. On filtration, the solid compound separates. Wash the solid compound 2-3 times with 400 ml of acetone and Evaporate and recover the solvent with temperature not exceeding 40 degree C. This leads to drying of the precipitated EPA at room temperature to form the crystalline mass. The same is passed through the sieve to obtain a dry, directly compressible, free flowing powder of free fatty acid EPA thereof.
Cool fish oil to 12 degree C. to solidify all fatty acids in waxy form which separates from the fish oil. […] It is washed 2-3 times with equal quantity of acetone and Evaporate and recover the solvent with temperature not exceeding 40 degree C. […]

- Stability [1]: stable at room temperature
- Solubility [2]: freely soluble in chloroform
Structure (SMILES): CC/C=C\C/C=C\C/C=C\C/C=C\C/C=C\CCCC(=O)O [EPA, Eicosapentaenoic acid]

From patent publication US20140051877A1, “EICOSAPENTAENOIC ACID (EPA) AS POLYUNSATURATED FREE FATTY ACID IN ITS DIRECTLY COMPRESSIBLE POWDER FORM AND PROCESS OF ISOLATION THEREOF” (priority 2011, published 2014)
